According to patent publication US20080070860A1, “Adenosine Analogs Useful as Anti-Bacterial and Anti Protozoan Agents” (UTI LIMITED PARTNERSHIP, priority 2005, published 2008):

Target: T1, adenosine phosphorylase (Escherichia coli, UniProt P0ABP8)
T1 construct: assayed using the cell free lysate of E. coli as enzyme source; endogenous in cells; host or cells: Escherichia coli DH5alpha (cell-free lysate, 10,000 x g supernatant)
Experiment: Adenosine phosphorylase assay (cleavage of nucleoside analog to base, E. coli cell free lysate, HPLC)
Format: biochemical, Escherichia coli DH5alpha
Conditions: 100 μM nucleoside analog, 20 min, 50 mM phosphate pH 7.4
Protocol: Escherichia coli DH5alpha cells were used as the source of adenosine phosphorylase to test the compounds of the present invention. E. coli DH5 alpha cells were harvested in log phase and collected by centrifugation. Cells were lysed by sonication, centrifuged at 10,000×g for 30 min and the supernatant was recovered for assay or storage at −60° C.
Adenosine phosphorylase activity was assayed using the cell free lysate of E. coli as enzyme source for catalysis of the cleavage of nucleoside analogs to their corresponding base analogs in the presence of 50 mM phosphate at pH 7.4. Reaction products were subjected to separation by reverse phase high performance liquid chromatography (HPLC) equipped with continuous scanning diode array detector as described below. Substrates and products were identified by retention time and UV spectra of their peaks.
Samples for HPLC were prepared post reaction by deproteination with 10% v/v of 50% TCA. Following centrifugation at 10,000 g for 5 min the supernatant was recovered for neutralization. A minimal amount of bromophenol blue was added and the sample was titrated with alamine-freon. Following a further centrifugation at 10,000 g for 5 min, the neutralized sample may be stored at −60° C.
Nucleosides and bases in a 10 μl sample were separated on an HPLC equipped with a scanning UV detector from 220 to 320 nm at 5 nm intervals, utilizing a reverse phase Waters Symmetry C18, 4.6×150 mm, 5 um column in tandem with a Waters guard column.
Compounds were identified by retention time and UV spectra at peak height as collected during separation.
The relative rate of conversion of 100 μM nucleoside analog to the corresponding base in 20 min (measured as the % of analog converted) was determined for the following compounds: 5′-deoxyadenosine, 41%; 2-chloroadenosine, 31%; 2-chloro-5′-deoxyadenosine, 8%; 2-fluoro-5′-deoxyadenosine, >80%; 6-thiopurine-5′-deoxyriboside, 61%; 2-amino-5′-deoxyadenosine, 7%.

T1 sequence (P0ABP8 2-239): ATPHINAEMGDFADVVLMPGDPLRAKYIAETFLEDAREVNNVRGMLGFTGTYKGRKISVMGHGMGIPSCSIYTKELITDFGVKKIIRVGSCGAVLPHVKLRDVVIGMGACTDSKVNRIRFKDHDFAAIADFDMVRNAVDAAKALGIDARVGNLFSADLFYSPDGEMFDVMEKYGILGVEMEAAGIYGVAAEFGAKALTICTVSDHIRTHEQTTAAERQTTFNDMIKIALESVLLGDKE

Row | SMILES | relative rate of conversion of nucleoside analog to the corresponding base (% of analog converted)
1 | C[C@H]1O[C@@H](n2cnc3c(N)nc(F)nc32)[C@H](O)[C@@H]1O [2-fluoro-5′-deoxyadenosine] | > 80%
2 | C[C@H]1O[C@@H](n2cnc3c(N)nc(Cl)nc32)[C@H](O)[C@@H]1O [2-chloro-5′-deoxyadenosine] | 8%
3 | C[C@H]1O[C@@H](n2cnc3c(N)nc(N)nc32)[C@H](O)[C@@H]1O [2-amino-5′-deoxyadenosine] | 7%
4 | C[C@H]1O[C@@H](n2cnc3c(N)ncnc32)[C@H](O)[C@@H]1O [5′-deoxyadenosine] | 41%
5 | Nc1nc(Cl)nc2c1ncn2[C@@H]1O[C@H](CO)[C@@H](O)[C@H]1O [2-chloroadenosine, reference compound] | 31%
6 | C[C@H]1O[C@@H](n2cnc3c(S)ncnc32)[C@H](O)[C@@H]1O [6-thiopurine-5′-deoxyriboside, 6-mercaptopurine-5′-deoxy-β-D-riboside] | 61%

Target: adenosine kinase (Homo sapiens, UniProt P55263)
Experiment: not given
Conditions: Kowaluk et al. 1998; cited from earlier work

Chain of adenosine kinase (P55263 whole entry, species assumed): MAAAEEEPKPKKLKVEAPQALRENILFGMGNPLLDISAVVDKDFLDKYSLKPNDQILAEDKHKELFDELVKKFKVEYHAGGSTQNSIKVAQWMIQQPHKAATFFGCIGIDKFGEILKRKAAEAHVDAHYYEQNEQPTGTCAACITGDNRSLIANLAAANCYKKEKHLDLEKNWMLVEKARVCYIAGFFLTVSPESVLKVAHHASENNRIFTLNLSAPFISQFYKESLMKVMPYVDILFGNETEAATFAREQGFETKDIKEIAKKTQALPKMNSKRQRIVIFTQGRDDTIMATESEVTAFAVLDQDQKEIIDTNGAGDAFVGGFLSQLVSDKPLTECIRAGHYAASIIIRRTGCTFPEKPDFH

Row | SMILES | inhibition of adenosine kinase
7 | NC[C@H]1O[C@@H](n2cnc3c(N)ncnc32)[C@H](O)[C@@H]1O [5′-deoxy-5′-amino-adenosine] | potent inhibitor

System: not given
Experiment: not given
Conditions: not given

Row | SMILES | melting point
8 | C[C@H]1O[C@@H](n2cnc3c(N)nc(F)nc32)[C@H](O)[C@@H]1O [2-fluoro-5′-deoxyadenosine] | 244 to 245 °C
9 | C[C@H]1O[C@@H](n2cnc3c(N)nc(N)nc32)[C@H](O)[C@@H]1O [2-amino-5′-deoxyadenosine] | 135 to 138 °C
10 | COC[C@H]1O[C@@H](n2cnc3c(N)nc(F)nc32)[C@H](O)[C@@H]1O | 231 to 233 °C
11 | COC[C@H]1O[C@@H](n2cnc3c(N)nc(Cl)nc32)[C@H](O)[C@@H]1O | 92 to 94 °C

Target: T2, adenosine deaminase (Homo sapiens, UniProt P00813)
T2 sequence (P00813 1-363): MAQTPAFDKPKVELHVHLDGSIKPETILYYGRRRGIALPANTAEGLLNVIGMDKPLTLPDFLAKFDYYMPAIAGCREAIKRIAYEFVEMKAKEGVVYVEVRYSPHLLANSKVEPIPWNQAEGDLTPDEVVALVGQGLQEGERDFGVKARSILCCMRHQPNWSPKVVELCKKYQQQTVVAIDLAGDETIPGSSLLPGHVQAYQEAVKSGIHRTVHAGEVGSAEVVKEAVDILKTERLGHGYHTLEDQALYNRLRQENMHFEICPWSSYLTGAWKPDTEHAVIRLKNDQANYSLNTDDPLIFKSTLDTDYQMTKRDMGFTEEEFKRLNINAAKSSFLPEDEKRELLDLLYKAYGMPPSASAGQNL
Experiment: not given
Conditions: cited from earlier work

Row | SMILES | susceptibility to adenosine deaminase
12 | Cc1ncnc2nc[nH]c12 [6-methylpurine] | quite refractory
